Reference: patent publication US20230144436A1, “MUSCLE TARGETING COMPLEXES AND USES THEREOF FOR TREATING MYOTONIC DYSTROPHY” (Dyne Therapeutics, Inc., priority 2020, published 2023)

Assays:
[1] = tested on: DMPK; assay: DMPK knockdown by transfected antisense oligonucleotides in DM1 C15 myotubes at 0.5 nM and 50 nM; type: cell-based; settings: 72 hours, qPCR; for Percent DMPK Reduction: relative to vehicle control; for Normalized DMPK Remaining: relative to vehicle control = 1.00
Outline: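 Seven-day-differentiated DM1 C15 myotubes transfected (Lipofectamine MessengerMax) with each oligonucleotide at 0.5 nM or 50 nM final, biological triplicates. After 72 h, DMPK mRNA quantified by qPCR, expressed relative to vehicle-only transfection set to 1.00.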

[2] = tested on: DMPK; assay: Dose-responsive DMPK reduction in DM1 C15 myotubes (EC-50); type: cell-based; settings: DM1 C15 differentiated myotubes, 72 hours; for EC50: transfection with Lipofectamine MessengerMax, 0.046-100 nM; for Percent DMPK reduction at 100 nM: transfection
Method: Eighteen oligonucleotides from Example 7 were selected to be evaluated for their ability to reduce DMPK expression in a dose-responsive manner. DM1 C15 myoblasts were prepared as in Example 7 to yield differentiated myotubes in 96-well microplates. After seven days of differentiation, cells were transfected with individual oligonucleotides using Lipofectamine MessengerMax. Each oligonucleotide was tested in triplicate at concentrations of 0.046 nM, 0.137 nM, 0.412 nM, 1.235 nM, 3.704 nM, 11.11 nM, 33.33 nM, and 100 nM by 3-fold serial dilutions using 0.3 μL of Lipofectamine MessengerMax per well.
Following addition of oligonucleotide, cells were incubated for 72 hours prior to harvesting for total RNA. cDNA was synthesized from the total RNA extracts and qPCR was performed to determine expression levels of DMPK using a commercially available Taqman probeset in technical quadruplicate. All qPCR data were analyzed using a traditional ΔΔCT method and were normalized to a plate-based negative control that comprised of cells treated with vehicle control (0.3 μL/well Lipofectamine MessengerMax without any oligonucleotide). Data for each oligonucleotide to was fit to sigmoidal curve in order to determine an effective concentration of each oligonucleotide that provided a half-maximal response (EC-50).

[3] = tested on: mouse muscle tissue; settings: cited from earlier work
[4] = tested on: C2C12 murine myotubes; settings: in vitro, phage display; cited from earlier work
[5] = tested on: DMPK; assay: Dose response of antisense oligonucleotides in DMPK knockdown in human DM1 myotubes; type: cell-based
Text: FIGS. 18A-18C depict non-limiting schematics showing the dose response of selected antisense oligonucleotides in DMPK knockdown in human DM1 myotubes. ControlDMPK-ASO was used as control. […] Statistical analysis: One-way ANOVA with Tukey's HSD post-hoc test vs. control DMPK-ASO treatment; *p<0.05, **p<0.01, ***p<0.001, ****p<0.0001.
(§1) The antisense oligonucleotides listed in Table 11 were further assessed to identify oligos that are safe in vivo (e.g., as indicated by low immunogenicity as measured by cytokine induction), and further based on manufacturability and secondary structure considerations. Three antisense oligonucleotides from Table 11, […] (SEQ ID NO: 310, DMPK-ASO-1), […] (SEQ ID NO: 320, DMPK-ASO-2), and […] (SEQ ID NO: 278, DMPK-ASO-3) were selected. These oligonucleotides were then further evaluated for their ability to reduce DMPK expression in DM1 myotubes and NHP myotubes in a dose-responsive manner. The tool compound (control DMPK-ASO) was used as control.

[6] = tested on: DMPK; assay: DMPK expression in RD cells treated with free or transfected DMPK-targeting oligonucleotides; type: cell-based; settings: free (gymnotic) or transfected, 3 days
Method: The duration of treatment was 3 days. DMPK-targeting oligonucleotides were delivered to the cells as free oligonucleotides (gymnotic uptake, “free”) or with transfection reagent (“trans”).
DMPK-targeting oligonucleotides (e.g., ASO) were tested in rhabdomyosarcoma (RD) cells for knockdown of DMPK transcript expression. RD cells were cultured in a growth medium of DMEM with glutamine, supplemented with 10% FBS and penicillin/streptomycin until nearly confluent. Cells were then seeded into a 96 well plate at 20K cells per well and were allowed to recover for 24 hours. Cells were then treated with free DMPK-targeting oligonucleotides or by transfection of the oligonucleotides using 0.3 μL per well of Lipofectamine MessengerMAX transfection reagent. After 3 days, total RNA was collected from cells, cDNA was synthesized and DPMK expression was measured by qPCR.

[7] = tested on: DMPK; assay: Dose response of antisense oligonucleotides in DMPK knockdown in NHP myotubes; type: cell-based, non-human primate
Text: FIGS. 19A-19B depict non-limiting schematics showing the dose response of selected antisense oligonucleotides in DMPK knockdown in non-human primate (NHP) DM1 myotubes. Control DMPK-ASO was used as control.
as §1

Row | Substance | Percent DMPK Reduction ([1]; 0.5 nM oligonucleotide) [%] | Normalized DMPK Remaining ([1]; 0.5 nM oligonucleotide) | Percent DMPK Reduction ([1]; 50 nM oligonucleotide) [%] | Normalized DMPK Remaining ([1]; 50 nM oligonucleotide) | EC50 [2] [nM] | Percent DMPK reduction at 100 nM [2] [%] | specificity for binding to heart and skeletal muscle tissue ([3]; after intravenous injection in mice, reduced binding to liver, kidney, and brain) | binding to mouse muscle tissue ([3]; in vivo) | binding to C2C12 cells [4] | DMPK knockdown in DM1 myotubes [5] | DMPK expression level relative to PBS-treated cells [6] | DMPK knockdown in NHP myotubes [7]
1 | 288 (CAGGGACAGCCGCUGGAACU; chemistry not given here) [compound 288] | 32.09 | 0.68 | 58.84 | 0.41 | 6.04 | 90.59 |  |  |  |  |  | 
2 | 293 (GAAUGUCCGACAGUGUCUCC; chemistry not given here) [compound 293] | 30.09 | 0.70 | 63.41 | 0.37 | 0.07 | 97.23 |  |  |  |  |  | 
3 | 294 (CGUUCCAUCUGCCCGCAGCU; chemistry not given here) [compound 294] | 33.74 | 0.66 | 68.72 | 0.31 | 0.19 | 89.97 |  |  |  |  |  | 
4 | 299 (GCAGGAUGUUGUCGGGUUUG; chemistry not given here) [compound 299] | 44.39 | 0.56 | 78.03 | 0.22 | 0.168 | 89.77 |  |  |  |  |  | 
5 | 301 (UGUUGUCGGGUUUGAUGUCC; chemistry not given here) [compound 301] | 21.00 | 0.79 | 42.19 | 0.58 | 0.21 | 93.95 |  |  |  |  |  | 
6 | 310 (GCGUAGAAGGGCGUCUGCCC; chemistry not given here) [compound 310] | 39.53 | 0.60 | 77.91 | 0.22 | 24.6 | 95.13 |  |  |  |  |  | 
7 | 313 (GGACGAUCUUGCCAUAGGUC; chemistry not given here) [compound 313] | 29.82 | 0.70 | 48.97 | 0.51 | 3.59 | 92.18 |  |  |  |  |  | 
8 | 316 (AGCAGGAUGUUGUCGGGUUU; chemistry not given here) [compound 316] | 41.05 | 0.59 | 74.02 | 0.26 | 0.227 | 85.81 |  |  |  |  |  | 
9 | 320 (CCCAGCGCCCACCAGUCACA; chemistry not given here) [compound 320] | 37.93 | 0.62 | 67.82 | 0.32 | 5.45 | 63.69 |  |  |  |  |  | 
10 | 346 (GACAGAACAACGGCGAACAG; chemistry not given here) [compound 346] | 21.41 | 0.79 | 70.49 | 0.30 | 0.08 | 94.32 |  |  |  |  |  | 
11 | 362 (GCUGUCCCGGAGACCAUCCC; chemistry not given here) [compound 362] | 22.57 | 0.77 | 66.27 | 0.34 | 3.27 | 93.07 |  |  |  |  |  | 
12 | ASSLNIA [muscle-specific heptapeptide identified by phage display] |  |  |  |  |  |  | improved specificity for binding to heart and skeletal muscle tissue | bound to mouse muscle tissue in vivo | bound to C2C12 murine myotubes in vitro |  |  | 
13 | CCAUCUCGGCCGGAAUCCGC (chemistry not given here) [SEQ ID NO: 278, DMPK-targeting antisense oligonucleotide] |  |  |  |  |  |  |  |  |  | dose-dependently reducing DMPK | reduced | dose-dependently reducing DMPK
14 | CCCAGCGCCCACCAGUCACA (chemistry not given here) [SEQ ID NO: 320, DMPK-targeting antisense oligonucleotide] |  |  |  |  |  |  |  |  |  | dose-dependently reducing DMPK | reduced | dose-dependently reducing DMPK
15 | GCGUAGAAGGGCGUCUGCCC (chemistry not given here) [SEQ ID NO: 310, DMPK-targeting antisense oligonucleotide] |  |  |  |  |  |  |  |  |  | dose-dependently reducing DMPK | reduced | dose-dependently reducing DMPK
16 | SKTFNTHPQSTP [12 amino acid muscle-targeting peptide identified by phage display] |  |  |  |  |  |  |  |  | improved binding to C2C12 cells relative to the ASSLNIA |  |  | 
